# pIC50: −log10 of the molar value. Like-named read-outs stand apart in the source and are kept apart here.
# Legend:
# BVDV = BVDV infection inhibition in MDBK cells (RT-qPCR); assay type: cell-based, Bovine Viral Diarrhea virus; details: for pIC50: MDBK cells, 200 TCID50/well BVDV, after 4 days, read-out: BVDV infection inhibition concentration IC50
# Protocol: The next day, BVDV of 200 TCID50/well and inosine, xanthosine and guanosine in the dialdehyde and acyclic diol forms were treated to the cells simultaneously, and after 4 days, using commercialized Viral gene (DNA/RNA) extraction kit (iNtRON, 101410754), RNA was isolated.
# For the isolated RNA, using BVDV-specific primers (F-[…] , R-[…] ) and realtime RT-qPCR experimental method (94° C., 10 minutes 1 cycle, 94° C., 10 seconds, 53° C., 20 seconds, 72° C., 30 seconds 35 cycles), the antiviral efficacy of the materials was verified.
# [1] = mouse, in vivo
# [2] = test system: Influenza virus (2009 pandemic strain, CA04); details: for abnormal lesions due to fed materials (liver, stomach, spleen, kidney, heart, small intestine, large intestine): 250 mg/kg
# PCV2 = PCV2 infection inhibition in PK15 cells (qPCR); assay type: cell-based, Porcine Circovirus Type 2; details: for pIC50: PK15 cells, 200 TCID50/well PCV2, after 4 days, read-out: PCV2 infection inhibition concentration IC50
# Protocol: For the isolated DNA, using PCV2-specific primers (F-[…] , R-[…] ) and realtime RT-qPCR experimental method (95° C., 30 seconds 1 cycle, 95° C., 20 seconds, 56° C., 60 seconds 40 cycles), the antiviral efficacy of the materials was verified.
# [3] = test system: Swine Influenza virus (SIV); test: organism not typed; assay type: cell-based; details: for pIC50: read-out: SIV infection inhibition concentration IC50
# IBV = test: microbe, parasite or virus in culture; assay type: cell-based, Avian Infectious Bronchitis virus; details: for pIC50: read-out: IBV infection inhibition concentration IC50
# MDCK cell line = test: Cytotoxicity, MDCK cell tests; details: cytotoxicity
# BRV = BRV infection inhibition in MDBK cells (RT-qPCR); assay type: cell-based, Bovine Rotavirus; details: for pIC50: MDBK cells, 200 TCID50/well BRV, after 4 days, read-out: BRV infection inhibition concentration IC50
# Protocol: The next day, BRV of 200 TCID50/well and inosine, xanthosine and guanosine in the dialdehyde and acyclic diol forms were treated to the cells simultaneously, and after 4 days, using commercialized Viral gene (DNA/RNA) extraction kit (iNtRON, 101410754), RNA was isolated.
# For the isolated RNA, using BRV-specific primers (F-[…] , R-[…] ) and realtime RT-qPCR experimental method (95° C., 10 minutes 1 cycle, 95° C., 15 seconds, 60° C., 15 seconds, 72° C., 20 seconds 40 cycles), the antiviral efficacy of the materials was confirmed.
# PRV = test: microbe, parasite or virus in culture; assay type: cell-based, Porcine Rotavirus; details: for pIC50: read-out: PRV infection inhibition concentration IC50
# [4] = test system: PRRSV (NA type, VR-2332 strain); test: PRRSV infection inhibition in Marc-145 cells (immunofluorescence staining); assay type: cell-based, Porcine Reproductive and Respiratory Syndrome virus; details: for pIC50: Marc-145 cells, 100 TCID50/ml PRRSV, three days after treatment, read-out: PRRSV infection inhibition concentration IC50
# NDV = test: microbe, parasite or virus in culture; assay type: cell-based, Avian Newcastle Disease virus; details: for pIC50: read-out: NDV infection inhibition concentration IC50
# CPV = CPV infection inhibition in MDCK cells (qPCR); assay type: cell-based, Canine Parvovirus; details: for pIC50: MDCK cells, 200 TCID50/well CPV, after 4 days, read-out: CPV infection inhibition concentration IC50 (Table 10)
# Protocol: For the isolated DNA, using CPV-specific primers (F-[…] , R-[…] ) and realtime RT-qPCR experimental method (95° C., 5 minutes 1 cycle, 95° C., 10 seconds, 60° C., 30 seconds, 40 cycles), the antiviral efficacy of the materials was confirmed.
# MDBK cell line = test: Cytotoxicity, MDBK cell tests; details: cytotoxicity
# PK15 cell line = test: Cytotoxicity, PK15 cell test; details: read-out: CC50 (Table 3, PCV2); cytotoxicity
# Marc-145 cell line = test: Cytotoxicity (WST-1 / DAPI staining), PRRSV test cells
# [5] = test system: PEDV (G1a type, SM98 strain); test: PEDV infection inhibition in Vero cells (PEDV detection kit on isolated RNA); assay type: cell-based, Porcine Epidemic Diarrhea virus; details: for pIC50: Vero cells, 200 TCID50/ml PEDV, after 2 days, read-out: PEDV infection inhibition concentration IC50
# Protocol: The next day, PEDV (G1a type, SM98 strain) of 200 TCID50/ml and inosine, xanthosine and guanosine in the dialdehyde and acyclic diol forms were treated to the cells simultaneously, and after 2 days, using commercialized Viral gene (DNA/RNA) extraction kit (iNtRON, 101410754), RNA was isolated. For the isolated RNA, using commercialized PEDV detection kit (Mediandiagnostics, NS-PED-31), the antiviral efficacy of the materials was verified.
# in vitro = details: monkey
# PRRSV (NA strain) = test: PRRS virus challenge test using piglets
# [6] = Cytotoxicity, MDCK cell tests; details: dog, MDCK cells
# [7] = Cytotoxicity, MDBK cell tests; details: bovine, MDBK cells
# [8] = Cytotoxicity, PK15 cell test; details: pig, PK15 cells
# [9] = Cytotoxicity (WST-1 / DAPI staining), PRRSV test cells; details: monkey, Marc-145 cells (monkey kidney)
# [10] = Water solubility (stated); assay type: physicochemical
# [11] = mice, 100 MLD50 CA04, 250 mg/kg intragastric
# [12] = autopsy at 2 weeks, 50 mg/kg/day oral
smiles,measurement,setting,value
"Nc1nc2c(ncn2[C@@H](C=O)O[C@@H](C=O)CO)c(=O)[nH]1 [Dialdehyde-guanosine, dialdehyde form of guanosine]",pIC50,BVDV,2.56
same,time when 50% of the remaining materials was measured (based on AUC values),"[1]; ip, 50 mg/kg",about 6 hours
same,time when 50% of the remaining materials was measured (based on AUC values),"[1]; po, 250 mg/kg",about 9 hours
same,CC50,Vero cell line,> 6000 µM
same,amount of the virus remaining in the lung tissue (PCR),"[2]; mouse, in vivo",slightly lower
same,clinical symptoms after SIV challenge,"[2]; mouse, in vivo",very mild symptoms
same,lung lesions at autopsy,"[2]; mouse, in vivo",mild lung lesions
same,survival rate on the 7th day,"[2]; mouse, in vivo",80%
same,survival rate predicted on the 8th day based on all data up to the 7th day,"[2]; mouse, in vivo",60%
same,weight loss after SIV challenge,"[2]; mouse, in vivo",very slight
same,"abnormal lesions due to fed materials (liver, stomach, spleen, kidney, heart, small intestine, large intestine)","[2]; mouse, in vivo",not observed
same,pIC50,PCV2,4.02
same,pIC50,"[3]; MDCK cells, 200 TCID50/well SIV, after 4 days",3.77
same,pIC50,"IBV; Vero cells, 200 TCID50/well IBV, after 4 days",3.56
same,CC50,"MDCK cell line; read-out: CC50 (Table 5, SIV)",> 6000 µM
same,CC50,"MDCK cell line; read-out: CC50 (Table 10, CPV)",> 6000 µM
same,pIC50,BRV,4.05
same,pIC50,PRV,3.75
same,pIC50,[4],4.40
same,PRRSV infection inhibition,[4]; at 40 μM,50%
same,PRRSV infection inhibition,[4]; at 100 μM,≥ 90%
same,pIC50,"NDV; Vero cells, 200 TCID50/well NDV, after 3 days",2.95
same,pIC50,CPV,2.69
same,CC50,"MDBK cell line; read-out: CC50 (Table 8, BVDV)",> 6000 µM
same,CC50,"MDBK cell line; read-out: CC50 (Table 9, BRV)",> 6000 µM
same,CC50,PK15 cell line,> 6000 µM
same,CC50,"Marc-145 cell line; read-out: CC50 (Table 1, PRRSV), cytotoxicity, WST-1",> 6000 µM
same,cytotoxicity by DAPI staining,Marc-145 cell line; up to 1000 μM,no cytotoxicity was observed
same,pIC50,[5],3.81
"O=C[C@@H](CO)O[C@H](C=O)n1cnc2c(=O)[nH]c(=O)[nH]c21 [Dialdehyde-xanthosine, dialdehyde form of xanthosine]",pIC50,"BVDV; Bovine viral diarrhea virus isolates and strains, 96 h",4.01
same,"SI (selectivity index), BVDV",BVDV; CC50/IC50,>102.2
same,half-life tendency compared with guanosine in the dialdehyde form,[1],shorter
same,time when 50% of the remaining materials was measured (based on AUC values),"[1]; ip, 50 mg/kg",about 6 hours
same,time when 50% of the remaining materials was measured (based on AUC values),"[1]; po, 250 mg/kg",about 6 hours
same,CC50,Vero cell line; monkey,> 10000 µM
same,survival rate on the 7th day,[2]; [11],100%
same,survival rate predicted on the 8th day based on all data up to the 7th day,[2]; [11],100%
same,amount of the virus remaining in the lung tissue (PCR),"[2]; mouse, in vivo",lowest virus titer
same,clinical symptoms after SIV challenge,"[2]; mouse, in vivo",very mild symptoms
same,lung lesions at autopsy,"[2]; mouse, in vivo",mild lung lesions
same,weight loss after SIV challenge,"[2]; mouse, in vivo",very slight
same,"abnormal lesions due to fed materials (liver, stomach, spleen, kidney, heart, small intestine, large intestine)","[2]; mouse, in vivo",not observed
same,"SI (selectivity index), PCV2",PCV2; CC50/IC50,>23
same,pIC50,"PCV2; Porcine circovirus 2, PK-15, 96 h",3.36
same,"SI (selectivity index), SIV",[3]; CC50/IC50,>13.4
same,pIC50,"[3]; MDCK, 96 h",3.13
same,pIC50,"IBV; Avian coronavirus, Vero, 96 h",3.65
same,"SI (selectivity index), IBV",IBV; CC50/IC50,>44.3
same,CC50,in vitro,> 10000 µM
same,weight gain after PRRSV infection,"PRRSV (NA strain); 50 mg/kg/day oral twice/day, 14 days",no delay in weight gain
same,PRRS virus in lung by immunohistochemistry,PRRSV (NA strain); [12],only a very small amount of viruses were detected
same,"interstitial pneumonia lesions, visual observation of lung",PRRSV (NA strain); [12],relatively intact lung
same,virus titer in lung tissue,PRRSV (NA strain); [12],reduced compared to the positive control group
same,CC50,[6],> 10000 µM
same,CC50,"MDCK cell line; read-out: CC50 (Table 10, CPV)",> 10000 µM
same,"SI (selectivity index), BRV",BRV; CC50/IC50,>198.1
same,pIC50,"BRV; Rotavirus A, 96 h",4.30
same,"SI (selectivity index), PRV",PRV; CC50/IC50,>110.9
same,pIC50,"PRV; Rotavirus C, Vero, 72 h",≥ 4.00
same,pIC50,PRV,4.04
same,"SI (selectivity index), PRRSV",[4]; CC50/IC50,>133.3
same,pIC50,[4],4.12
same,"SI (selectivity index), NDV",NDV; CC50/IC50,>19
same,pIC50,"NDV; avian paramyxovirus 1, Vero, 72 h",3.28
same,"SI (selectivity index), CPV",CPV; CC50/IC50,>45.2
same,pIC50,"CPV; Canine parvovirus, 96 h",3.66
same,CC50,[7],> 10000 µM
same,CC50,"MDBK cell line; read-out: CC50 (Table 9, BRV)",> 10000 µM
same,CC50,[8],> 10000 µM
same,CC50,[9],> 10000 µM
same,water solubility,[10],slightly high
same,"SI (selectivity index), PEDV",[5]; CC50/IC50,>25.1
same,pIC50,"[5]; Porcine epidemic diarrhea virus, 48 h",3.40

# — patent publication US20250057849A1, “ANTIVIRAL COMPOSITION COMPRISING NUCLEOSIDE ANALOGUES DERIVED FROM NUCLEIC ACID AND PHARMACEUTICALLY ACCEPTABLE SALT THEREOF” (CJ CheilJedang Corporation, priority 2021, published 2025)
